Laboratory results as given in ChEMBL document CHEMBL3112450, “Synthesis and in vitro antitumor evaluation of primary amine substituted quinazoline linked benzimidazole” (Bioorg Med Chem Lett, 2014).

Tests used:
Assay type in all cases: functional
SF-268 = test: Cytotoxicity against human SF268 cells after 48 hrs by SRB assay; details: SF-268, 48 h
OVCAR-3 = test: Cytotoxicity against human OVCAR3 cells assessed as cell growth at 10^-8 M after 48 hrs by SRB assay; details: OVCAR-3, 48 h, read-out: Activity
NCI-H226 = test: Cytotoxicity against human NCI-H226 cells assessed as cell growth at 10^-8 M after 48 hrs by SRB assay; details: NCI-H226, 48 h, read-out: Activity
SNB-19 = test: Cytotoxicity against human SNB19 cells assessed as cell growth at 10^-4 M after 48 hrs by SRB assay; details: SNB-19, 48 h, read-out: Activity
[1] = Cytotoxicity against human OVCAR5 cells after 48 hrs by SRB assay; details: OVCAR-5, 48 h
T47D = test: Cytotoxicity against human T47D cells assessed as cell growth at 10^-4 M after 48 hrs by SRB assay; details: read-out: Activity
K562 [2] = test: Cytotoxicity against human K562 cells assessed as cell growth at 10^-7 M after 48 hrs by SRB assay; details: K562, 48 h, read-out: Activity
LOX IMVI [3] = test: Cytotoxicity against human LOXIMVI cells assessed as cell growth at 10^-8 M after 48 hrs by SRB assay; details: read-out: Activity
[4] = Cytotoxicity against human NCI-ADR-RES cells assessed as cell growth at 10^-7 M after 48 hrs by SRB assay; details: read-out: Activity
LOX IMVI [5] = test: Cytotoxicity against human LOXIMVI cells assessed as cell growth at 10^-4 M after 48 hrs by SRB assay; details: read-out: Activity
SK-MEL-5 = test: Cytotoxicity against human SK-MEL-5 cells after 48 hrs by SRB assay; details: SK-MEL-5, 48 h
SF-295 [6] = test: Cytotoxicity against human SF295 cells assessed as cell growth at 10^-7 M after 48 hrs by SRB assay; details: SF-295, 48 h, read-out: Activity
SK-MEL-2 = test: Cytotoxicity against human SK-MEL-2 cells assessed as cell growth at 10^-8 M after 48 hrs by SRB assay; details: SK-MEL-2, 48 h, read-out: Activity
UACC-62 = test: Cytotoxicity against human UACC62 cells after 48 hrs by SRB assay; details: UACC-62, 48 h
HOP-92 = test: Cytotoxicity against human HOP92 cells after 48 hrs by SRB assay; details: HOP-92, 48 h
[7] = Cytotoxicity against human OVCAR5 cells assessed as cell growth at 10^-8 M after 48 hrs by SRB assay; details: OVCAR-5, 48 h, read-out: Activity
OVCAR-8 [8] = test: Cytotoxicity against human OVCAR8 cells assessed as growth inhibition at 10 uM after 48 hrs by SRB assay; details: OVCAR-8, 48 h, read-out: GI
[9] = Cytotoxicity against human OVCAR4 cells assessed as cell growth at 10^-7 M after 48 hrs by SRB assay; details: OVCAR-4, 48 h, read-out: Activity
NCI-H322M [10] = test: Cytotoxicity against human NCI-H322M cells assessed as cell growth at 10^-6 M after 48 hrs by SRB assay; details: read-out: Activity
HL-60(TB) [11] = test: Cytotoxicity against human HL-60(TB) cells assessed as cell growth at 10^-7 M after 48 hrs by SRB assay; details: HL-60, 48 h, read-out: Activity
SK-MEL-28 = test: Cytotoxicity against human SK-MEL-28 cells assessed as cell growth at 10^-6 M after 48 hrs by SRB assay; details: SK-MEL-28, 48 h, read-out: Activity
U-251 = test: Cytotoxicity against human U251 cells assessed as cell growth at 10^-7 M after 48 hrs by SRB assay; details: U-251, 48 h, read-out: Activity
HT-29 = test: Cytotoxicity against human HT-29 cells assessed as cell growth at 10^-4 M after 48 hrs by SRB assay; details: HT-29, 48 h, read-out: Activity
SF-295 [12] = test: Cytotoxicity against human SF295 cells assessed as cell growth at 10^-4 M after 48 hrs by SRB assay; details: SF-295, 48 h, read-out: Activity
SF-295 [13] = test: Cytotoxicity against human SF295 cells assessed as cell growth at 10^-6 M after 48 hrs by SRB assay; details: SF-295, 48 h, read-out: Activity
ACHN = test: Cytotoxicity against human ACHN cells assessed as cell growth at 10^-4 M after 48 hrs by SRB assay; details: read-out: Activity
SK-OV-3 = test: Cytotoxicity against human SKOV3 cells assessed as cell growth at 10^-8 M after 48 hrs by SRB assay; details: SK-OV-3, 48 h, read-out: Activity
KM12 = test: Cytotoxicity against human KM12 cells assessed as cell growth at 10^-6 M after 48 hrs by SRB assay; details: KM12, 48 h, read-out: Activity
HCT-116 = test: Cytotoxicity against human HCT116 cells assessed as cell growth at 10^-4 M after 48 hrs by SRB assay; details: HCT-116, 48 h, read-out: Activity
[14] = Cytotoxicity against human OVCAR4 cells assessed as cell growth at 10^-6 M after 48 hrs by SRB assay; details: OVCAR-4, 48 h, read-out: Activity
LOX IMVI [15] = test: Cytotoxicity against human LOXIMVI cells after 48 hrs by SRB assay
MDA-MB-231 = test: Cytotoxicity against human MDA-MB-231 cells assessed as cell growth at 10^-8 M after 48 hrs by SRB assay; details: MDA-MB-231, 48 h, read-out: Activity
NCI-H322M [16] = test: Cytotoxicity against human NCI-H322M cells assessed as cell growth at 10^-4 M after 48 hrs by SRB assay; details: read-out: Activity
HCT-15 = test: Cytotoxicity against human HCT15 cells assessed as cell growth at 10^-4 M after 48 hrs by SRB assay; details: HCT-15, 48 h, read-out: Activity
CCRF-CEM [17] = test: Cytotoxicity against human CCRF-CEM cells assessed as cell growth at 10^-7 M after 48 hrs by SRB assay; details: read-out: Activity
CCRF-CEM [18] = test: Cytotoxicity against human CCRF-CEM cells assessed as cell growth at 10^-6 M after 48 hrs by SRB assay; details: read-out: Activity
K562 [19] = test: Cytotoxicity against human K562 cells assessed as cell growth at 10^-4 M after 48 hrs by SRB assay; details: K562, 48 h, read-out: Activity
HL-60(TB) [20] = test: Cytotoxicity against human HL-60(TB) cells assessed as cell growth at 10^-4 M after 48 hrs by SRB assay; details: HL-60, 48 h, read-out: Activity
OVCAR-8 [21] = test: Cytotoxicity against human OVCAR8 cells after 48 hrs by SRB assay; details: OVCAR-8, 48 h

## C=CCn1c(C)nc2ccc(Nc3nc(Nc4ccc(F)cc4)nc4ccccc34)cc21
SF-268
  GI50: 8.69 µM
  LC50 (50% lethal concentration): 82.3 µM
  TGI: 27.8 µM
OVCAR-3
  growth at 0.01 µM: 97%
NCI-H226
  growth at 0.01 µM: 92%
SNB-19
  growth at 100 µM: -80%
[1]
  GI50: 11.6 µM
  LC50: 61.2 µM
  TGI: 26.6 µM
T47D
  growth at 100 µM: -13%
K562 [2]
  growth at 0.1 µM: 103%
LOX IMVI [3]
  growth at 0.01 µM: 97%
[4]
  growth at 0.1 µM: 97%
LOX IMVI [5]
  growth at 100 µM: -42%
SK-MEL-5
  GI50: 1.36 µM
  LC50: 5.14 µM
  TGI: 2.64 µM
SF-295 [6]
  growth at 0.1 µM: 92%
SK-MEL-2
  growth at 0.01 µM: 98%
UACC-62
  GI50: 1.8 µM
  TGI: 3.7 µM
UACC-62; read-out: LC50 (the source's name)
  CC50: 7.59 µM
HOP-92
  GI50: 0.585 µM
  LC50: 36.2 µM
  TGI: 6.97 µM
[7]
  growth at 0.01 µM: 101%
OVCAR-8 [8]
  inhibition of growth at 10 µM: 50%
[9]
  growth at 0.1 µM: 95%
NCI-H322M [10]
  growth at 1 µM: 85%
HL-60(TB) [11]
  growth at 0.1 µM: 100%
SK-MEL-28
  growth at 1 µM: 89%
U-251
  growth at 0.1 µM: 92%
HT-29
  growth at 100 µM: -34%
SF-295 [12]
  growth at 100 µM: -87%
SF-295 [13]
  growth at 1 µM: 91%
ACHN
  growth at 100 µM: -73%
SK-OV-3
  growth at 0.01 µM: 96%
KM12
  growth at 1 µM: 94%
HCT-116
  growth at 100 µM: -77%
[14]
  growth at 1 µM: 85%
LOX IMVI [15]
  GI50: 4.36 µM
  LC50: > 100 µM
  TGI: 23 µM
MDA-MB-231
  growth at 0.01 µM: 99%
NCI-H322M [16]
  growth at 100 µM: -82%
HCT-15
  growth at 100 µM: -38%
CCRF-CEM [17]
  growth at 0.1 µM: 102%
CCRF-CEM [18]
  growth at 1 µM: 94%
K562 [19]
  growth at 100 µM: -41%
HL-60(TB) [20]
  growth at 100 µM: -45%
OVCAR-8 [21]
  GI50: 3.05 µM
  LC50: > 100 µM
  TGI: 13.6 µM
